Measured values: PubChem BioAssay (NCI)
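All cell lines were grown in 96-well plates and treated with compound for 48 hours. The concentration for 50% growth inhibition is given as GI50. TGI: total growth inhibition.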

Key:
Experiment in all cases: NCI anticancer screen, dose series, 48 h; in the data active means GI50 below about 0.43 µM; inactive means the rest
[1] = tested on: CCRF-CEM leukemia
[2] = tested on: DU-145 prostate
[3] = tested on: HCC-2998 colon
[4] = tested on: HOP-62 NSCLC
[5] = tested on: MCF7 breast
[6] = tested on: NCI-H23 lung
[7] = tested on: SF-268 CNS
[8] = tested on: SK-MEL-28 melanoma
[9] = tested on: SN12C renal
[10] = tested on: U251 CNS

Clc1ccc(Nc2nc(Nc3ccccc3)nc(Nc3ccc(-c4cc(-c5ccc(Cl)cc5)on4)cc3)n2)cc1
inactive: GI50 [1] 11.8 µM | GI50 [2] 20.4 µM | GI50 [3] 29.1 µM | GI50 [4] 18.4 µM | GI50 [5] 12.2 µM | GI50 [6] 18.4 µM | GI50 [7] 43.4 µM | GI50 [8] 40.3 µM | GI50 [9] 24.8 µM | GI50 [10] 17.7 µM
80.3 µM: TGI [2]
> 100 µM: TGI [1] | TGI [3] | TGI [4] | TGI [5] | TGI [7] | TGI [8] | TGI [9] | TGI [10]
60.4 µM: TGI [6]

Nc1nnc(CCC(=O)Nc2cc(Cl)ccc2Cl)n1N
> 100 µM: TGI [1] | TGI [3] | TGI [4] | TGI [6] | TGI [7] | TGI [8] | TGI [9] | TGI [10]

O=C1C2Cc3c(n(C(=O)c4ccccc4)c4ccccc34)CC2C(=O)N1c1ccc(Nc2ccc(N3C(=O)C4Cc5c(n(C(=O)c6ccccc6)c6ccccc56)CC4C3=O)cc2)cc1 (centres undefined)
> 100 µM: TGI [1] | TGI [2] | TGI [3] | TGI [4] | TGI [5] | TGI [6] | TGI [7] | TGI [8] | TGI [9] | TGI [10]

CC1=CC(O)C(C(O)(C(F)(F)F)C(F)(F)F)C(C)(C)C1 (centres undefined)
> 10 µM: TGI [1] | TGI [2] | TGI [3] | TGI [4] | TGI [5] | TGI [6] | TGI [7] | TGI [8] | TGI [9] | TGI [10]

OCCCSCCO
> 100 µM: TGI [1] | TGI [2] | TGI [3] | TGI [4] | TGI [5] | TGI [6] | TGI [7] | TGI [8] | TGI [9] | TGI [10]

O=C(O)C(O)C(O)C(O)C(O)C(=O)O (centres undefined)
> 100 µM: TGI [1] | TGI [2] | TGI [3] | TGI [4] | TGI [5] | TGI [6] | TGI [7] | TGI [8] | TGI [9] | TGI [10]

CC1C(=O)c2cc3c(cc2CCN(C)Cc2c1ccc1c2OCO1)OCO3 (centres undefined)
inactive: GI50 [1] 22 µg/mL | GI50 [2] > 75 µg/mL | GI50 [3] 14.1 µg/mL | GI50 [4] > 75 µg/mL | GI50 [5] 48.5 µg/mL | GI50 [6] > 75 µg/mL | GI50 [7] > 75 µg/mL | GI50 [8] 30.9 µg/mL | GI50 [9] > 75 µg/mL | GI50 [10] 67.5 µg/mL
33.5 µg/mL: TGI [3]
> 75 µg/mL: TGI [1] | TGI [2] | TGI [4] | TGI [5] | TGI [6] | TGI [7] | TGI [8] | TGI [9] | TGI [10]

Cc1cc2ccc(OC(=O)c3ccc(N=C(N)N)cc3)cc2oc1=O
58.6 µM: TGI [8]
54.9 µM: TGI [5]
> 100 µM: TGI [1] | TGI [2]
45.6 µM: TGI [10]
73.8 µM: TGI [7]
64 µM: TGI [9]
46.5 µM: TGI [6]
48.5 µM: TGI [4]

O=C1/C(=C/c2[nH]ncc2-c2ccc(Cl)cc2)C(=O)N(c2ccccc2)C1c1ccccc1 (centres undefined)
63.2 µM: TGI [4]
28.8 µM: TGI [6]
50.2 µM: TGI [10]
40.9 µM: TGI [7]
> 100 µM: TGI [5]
53.7 µM: TGI [1]
50.4 µM: TGI [8]
85.7 µM: TGI [9]
50.3 µM: TGI [2]

O/C(=C\c1nc2ccccc2nc1/C=C(\O)c1ccc(F)cc1)c1ccc(F)cc1
> 100 µM: TGI [1] | TGI [2] | TGI [3] | TGI [4] | TGI [5] | TGI [6] | TGI [7] | TGI [8] | TGI [9] | TGI [10]

Nc1cc(S(=O)(=O)O)cc2ccc(S(=O)(=O)O)cc12
> 100 µM: TGI [1] | TGI [2] | TGI [3] | TGI [4] | TGI [5] | TGI [6] | TGI [7] | TGI [8] | TGI [9] | TGI [10]

Cc1n[n+]([O-])c(C)cc1[N+](=O)[O-]
51.2 µM: TGI [2]
25 µM: TGI [3]
9.32 µM: TGI [1]
51.9 µM: TGI [10]
45.6 µM: TGI [5]
29.9 µM: TGI [6]
42.7 µM: TGI [4]
31.9 µM: TGI [8]
> 100 µM: TGI [7]
28.1 µM: TGI [9]

CC1(C(=O)O)C[C@](C)(C(=O)OCc2ccccc2)C[C@](C)(C(=O)OCc2ccccc2)C1 (some centres undefined)
79.8 µM: TGI [3]
> 100 µM: TGI [1] | TGI [2] | TGI [4] | TGI [5] | TGI [7] | TGI [8] | TGI [9]
56.6 µM: TGI [6]

O=C(Cc1csc2nc(-c3ccc(Cl)cc3)cn12)N/N=C/c1ccccc1O
35.4 µM: TGI [10]
> 100 µM: TGI [1] | TGI [2] | TGI [3] | TGI [4] | TGI [5] | TGI [6] | TGI [8] | TGI [9]
54.8 µM: TGI [7]
inactive: GI50 [1] 0.736 µM | GI50 [2] 2.72 µM | GI50 [3] 2.4 µM | GI50 [4] 4.67 µM | GI50 [5] 3.34 µM | GI50 [6] 5.32 µM | GI50 [7] 1.26 µM | GI50 [8] 5.5 µM | GI50 [9] 11 µM | GI50 [10] 1.77 µM

O=S(=O)(O)c1ccc2c(N=Nc3ccc(N=Nc4ccccc4)cc3)c(O)c(S(=O)(=O)O)cc2c1
> 100 µM: TGI [1] | TGI [2] | TGI [3] | TGI [4] | TGI [5] | TGI [6] | TGI [7] | TGI [8] | TGI [9] | TGI [10]

N=c1ccc2nc(N)nn(O)c-2c1
> 100 µM: TGI [1] | TGI [2] | TGI [4] | TGI [5] | TGI [6] | TGI [7] | TGI [8] | TGI [9] | TGI [10]
